The values below come from PubChem BioAssay (NCI).

Test systems include 786-0 renal; EKVX NSCLC; HCT-116 colon; NCI-H522 lung; OVCAR-5 ovarian; RXF 393 renal; SK-MEL-5 melanoma; U251 CNS; RPMI-8226 leukemia.
Assay in all cases: NCI tumour cell line growth inhibition, 48 h

Where “and” joins values, the source holds several entries; their conditions need not be identical. Identical values can stand only once.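 Five compound concentrations were applied to cells in 96-well plates for 48 hours; endpoints were derived by simple linear interpolation of the resulting dose-response curve. GI50 marks 50% less growth. Definition used: TGI = concentration required for complete inhibition of growth.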

For the compound `C=C(c1ccc(C(=O)NCCCn2ccnc2)cc1)c1cc2c(cc1C)C(C)(C)CCC2(C)C`, the GI50 with 786-0 renal was 1.94 µM; in the experiment with EKVX NSCLC, 4.84 µM; in the experiment on HCT-116 colon, 0.0398 µM; in the experiment on NCI-H522 lung, 0.123 µM; with OVCAR-5 ovarian, 0.953 µM; in the experiment with RXF 393 renal, 1.71 µM. Further, the figures for the GI50 in the experiment on SK-MEL-5 melanoma and with U251 CNS were 1.14 µM and 0.288 µM, respectively. In addition, the TGI with 786-0 renal is 5.45 µM; in the experiment with EKVX NSCLC it was above 100 µM; in the experiment with HCT-116 colon, 1.79 µM; in the experiment with NCI-H522 lung it was 3.72 µM; with OVCAR-5 ovarian, 12.7 µM; in the experiment with RXF 393 renal, 4.71 µM. Besides, the results for the TGI in the experiment on SK-MEL-5 melanoma and in the experiment with U251 CNS were 2.43 µM and 3.29 µM, respectively.
In the case of `CC1(O)CC2C(CC1SCc1ccccc1)C2(C)C` (stereo not given), the TGI with 786-0 renal was 42.7 µM and 29.3 µM; in the experiment on EKVX NSCLC, 77.3 µM and 31.7 µM; with HCT-116 colon, 47.9 µM and 30.2 µM; in the experiment with NCI-H522 lung it was 29.1 µM and 25.2 µM; in the experiment on OVCAR-5 ovarian, 40.4 µM and 31.8 µM; in the experiment with RPMI-8226 leukemia, 44.9 µM and 51.1 µM. In addition, the TGI was 35.6 µM and 28.6 µM in the experiment on RXF 393 renal; 40.4 µM and 25.8 µM with SK-MEL-5 melanoma; 44.7 µM and 29.7 µM with U251 CNS.
For `COc1ccc(/C(C#N)=C2/O/C(=N/N)C(c3ccc(OC)c(OC)c3)C2=O)cc1OC` (stereo not given), the TGI with 786-0 renal, with EKVX NSCLC, with HCT-116 colon, in the experiment on NCI-H522 lung, with RPMI-8226 leukemia and in the experiment on SK-MEL-5 melanoma was above 100 µM throughout. The TGI in the experiment with U251 CNS was above 100 µM.
As for `COc1cc2c(c(OC)c1OC)-c1ccc(SC)c(=O)cc1C(CC(=O)Oc1ccccc1F)C2` (stereo not given), the TGI is above 7.5 µM with 786-0 renal; 0.0644 µM in the experiment with HCT-116 colon; 0.0307 µM in the experiment on NCI-H522 lung; above 7.5 µM in the experiment with OVCAR-5 ovarian; above 7.5 µM in the experiment on RPMI-8226 leukemia; 0.108 µM in the experiment with U251 CNS.
Take `CCOC(=O)C(=O)Nc1nc2ccc(OC)cc2s1`: the TGI with 786-0 renal, in the experiment with EKVX NSCLC, with OVCAR-5 ovarian, with RPMI-8226 leukemia, in the experiment with SK-MEL-5 melanoma and in the experiment on U251 CNS was above 100 µM each time.
`COc1cc([C@H]2c3cc4c(cc3[C@H](NCc3ccc(F)cc3)C3COC(=O)[C@H]32)OCO4)cc(OC)c1O` (stereo not given in full): the TGI with 786-0 renal worked out at 5.48 µM; in the experiment on EKVX NSCLC it was 28.8 µM; with HCT-116 colon it was 23.1 µM; with NCI-H522 lung it was 9.48 µM; in the experiment with OVCAR-5 ovarian it was 30.9 µM; in the experiment with RPMI-8226 leukemia, 18.2 µM. Moreover, the TGI in the experiment with RXF 393 renal came to 42.8 µM; with U251 CNS, 4.35 µM.
Turning to `NC(=O)N1N=C2c3ccccc3OC[C@H]2[C@@H]1c1ccccc1`, the TGI in the experiment with 786-0 renal was above 100 µM; with EKVX NSCLC, above 100 µM; in the experiment with HCT-116 colon, above 39.2 µM; with NCI-H522 lung, 12.7 µM; with OVCAR-5 ovarian it was 72.1 µM; in the experiment with RPMI-8226 leukemia, above 89.3 µM. The TGI in the experiment with RXF 393 renal was 8.7 µM; in the experiment on U251 CNS, 28.5 µM.
`COc1ccc(C2C(C(=O)O)=C(COC(C)=O)Oc3cc4c(cc32)OCO4)c(OC)c1` (stereo not given): the TGI in the experiment on 786-0 renal, in the experiment on EKVX NSCLC, in the experiment on HCT-116 colon, with RPMI-8226 leukemia, in the experiment with RXF 393 renal and with SK-MEL-5 melanoma was above 100 µM in each case. The TGI with U251 CNS was above 100 µM.
With `CCOC(=O)c1cnc2c(ccc3ncccc32)c1OCC`, the TGI with 786-0 renal, in the experiment on EKVX NSCLC, in the experiment on HCT-116 colon, in the experiment on NCI-H522 lung, with OVCAR-5 ovarian and in the experiment on RXF 393 renal was above 100 µM each time. Moreover, the TGI in the experiment with SK-MEL-5 melanoma and in the experiment with U251 CNS was above 100 µM throughout.
As for `O=S1(=O)CS(=O)(=O)OCCCCCO1`, the TGI in the experiment on 786-0 renal, in the experiment on EKVX NSCLC, in the experiment with HCT-116 colon, with NCI-H522 lung, with OVCAR-5 ovarian and with RPMI-8226 leukemia was above 100 µM each time. Besides, the TGI in the experiment on RXF 393 renal and with U251 CNS was above 100 µM each time.
With `Cc1cc(N(CCC#N)CCC#N)ccc1/C=C1N=C(/C=C\c2ccccc2)N(c2ccc(C(=O)O)cc2)C\1=O`, the TGI in the experiment with 786-0 renal, in the experiment with HCT-116 colon, with NCI-H522 lung, in the experiment on OVCAR-5 ovarian, with RPMI-8226 leukemia and with SK-MEL-5 melanoma was above 100 µM throughout. Moreover, the TGI in the experiment with U251 CNS was above 100 µM.
With `COc1ccc(S(=O)(=O)NNS(C)(=O)=O)cc1OC`, the TGI in the experiment with 786-0 renal, with EKVX NSCLC, in the experiment on NCI-H522 lung, with RPMI-8226 leukemia, in the experiment with RXF 393 renal and with SK-MEL-5 melanoma was above 100 µM in each case. In the experiment on U251 CNS, this compound showed a TGI above 100 µM.
For the compound `C=C(/C=C/C=C(\CO)CCC=C(C)C)[C@H]1CCC2([C@H](CCCO)/C(=C(/C)C=O)CC[C@]2(C)O)[C@H]1O` (stereo not given in full), the TGI in the experiment with 786-0 renal, with EKVX NSCLC, with HCT-116 colon, in the experiment on OVCAR-5 ovarian, in the experiment on RPMI-8226 leukemia and with SK-MEL-5 melanoma was above 100 µM throughout. In addition, the TGI in the experiment with U251 CNS is above 100 µM.
`Clc1ccc(/C=C/c2csnn2)cc1`: the TGI in the experiment with 786-0 renal, in the experiment on EKVX NSCLC, with HCT-116 colon, with NCI-H522 lung, in the experiment on OVCAR-5 ovarian and in the experiment with RXF 393 renal was above 100 µM in each case. The TGI in the experiment with SK-MEL-5 melanoma and in the experiment on U251 CNS was above 100 µM each time.
Take `O=C(CC/C(CC(=O)c1ccc(Cl)cc1)=N\O)Nc1cccc(Cl)c1`: the TGI with 786-0 renal, in the experiment on EKVX NSCLC, in the experiment with OVCAR-5 ovarian, in the experiment with RPMI-8226 leukemia, in the experiment with SK-MEL-5 melanoma and in the experiment on U251 CNS was above 100 µM each time.
For `COC(=O)C1C(=O)NC2(C)CC1c1ccccc1O2` (stereo not given), the TGI with 786-0 renal, in the experiment with HCT-116 colon, in the experiment with NCI-H522 lung, with OVCAR-5 ovarian, in the experiment on RPMI-8226 leukemia and in the experiment on RXF 393 renal was above 100 µM each time. In addition, the TGI with SK-MEL-5 melanoma and with U251 CNS was above 100 µM in each case.
Regarding `Cc1c(C(=O)/C=C/c2ccc3c(c2)OCO3)[n+](=O)c2ccccc2n1[O-]`, the TGI was above 100 µM in the experiment with 786-0 renal; 69.3 µM in the experiment with EKVX NSCLC; 75.1 µM in the experiment with HCT-116 colon; 36.9 µM in the experiment with NCI-H522 lung; 74.3 µM in the experiment with OVCAR-5 ovarian; 69.3 µM in the experiment with RPMI-8226 leukemia. For the same compound, the TGI was 54.1 µM with RXF 393 renal and above 100 µM with U251 CNS.
Turning to `NC(=O)C1C(=O)Oc2cccnc21` (stereo not given), the TGI with 786-0 renal, with EKVX NSCLC, in the experiment on HCT-116 colon, in the experiment with NCI-H522 lung, in the experiment on RPMI-8226 leukemia and in the experiment with RXF 393 renal was above 100 µM in each case. Besides, the TGI in the experiment on SK-MEL-5 melanoma and with U251 CNS was above 100 µM each time.
Regarding `Cc1ccc(/C=C2\CCCC(C(NO)c3ccc(C)cc3)C2=NO)cc1` (stereo not given), the TGI with 786-0 renal is above 100 µM; in the experiment on EKVX NSCLC, above 100 µM; in the experiment on HCT-116 colon, above 100 µM; in the experiment on NCI-H522 lung, 76.1 µM; in the experiment with RPMI-8226 leukemia, 48.8 µM; in the experiment on RXF 393 renal it was 71.9 µM. The TGI is 50.2 µM in the experiment with SK-MEL-5 melanoma and above 100 µM in the experiment on U251 CNS.
On to `COc1ccc(C2NC(c3ccc(OC)cc3)C(C)C(=O)C2C)cc1` (stereo not given), for which the TGI in the experiment on 786-0 renal was above 100 µM; in the experiment on EKVX NSCLC it was above 100 µM; in the experiment on HCT-116 colon, above 100 µM; in the experiment with NCI-H522 lung, above 100 µM; in the experiment on OVCAR-5 ovarian it was 97.2 µM; with RPMI-8226 leukemia it was above 100 µM. Besides, the TGI with RXF 393 renal and in the experiment on U251 CNS was above 100 µM in each case.
Take `O=C(Cn1ccnc1[N+](=O)[O-])NCc1ccc(F)cc1`: the TGI with 786-0 renal, with EKVX NSCLC, with NCI-H522 lung, with OVCAR-5 ovarian, with RPMI-8226 leukemia and in the experiment with RXF 393 renal was above 100 µM throughout. The TGI in the experiment on SK-MEL-5 melanoma and with U251 CNS was above 100 µM in each case.
In the case of `COc1cc2ccc(CC(=O)O)cc2cc1OC`, the TGI with 786-0 renal, in the experiment on EKVX NSCLC, with HCT-116 colon, in the experiment with NCI-H522 lung, in the experiment on RPMI-8226 leukemia and in the experiment with RXF 393 renal was above 100 µM each time. The TGI with SK-MEL-5 melanoma and with U251 CNS was above 100 µM throughout.
For `O=C(Nc1c(Cl)cc([N+](=O)[O-])cc1Cl)C(=O)C(C(=O)c1ccncc1)C1OC(=O)c2ccccc21` (stereo not given), the TGI with 786-0 renal, with EKVX NSCLC, with HCT-116 colon, in the experiment on NCI-H522 lung, in the experiment on OVCAR-5 ovarian and with RPMI-8226 leukemia was above 100 µM throughout. Also, the TGI with RXF 393 renal and in the experiment with U251 CNS was above 100 µM throughout.
As for `CCOc1ccccc1NC(=O)C1=C(C)NC(C)=C(C(=O)Nc2ccccc2OCC)C1c1ccc2c(c1)OCO2`, the TGI was above 100 µM with 786-0 renal; above 100 µM with EKVX NSCLC; 29.8 µM in the experiment with NCI-H522 lung; above 100 µM in the experiment on OVCAR-5 ovarian; above 100 µM with RPMI-8226 leukemia; above 100 µM in the experiment with RXF 393 renal. Also, the TGI with SK-MEL-5 melanoma was 73.2 µM; with U251 CNS it was above 100 µM.
